Data taken from ChEMBL document CHEMBL4495564, “Identification of inhibitors of SARS-Cov2 M-Pro enzymatic activity using a small molecule repurposing screen” (2020).
Several values for one entry are separate records, joined by “and”; a condition that tells them apart may be missing. Equal values may be shown once. Where a name gives a salt, the structure may show the parent alone.

Legend:
[1] = molecular target: Replicase polyprotein 1ab (Middle East respiratory syndrome-related coronavirus (isolate UnitedKingdom/H123990006/2012) (Betacoronavirus England 1) (Humancoronavirus EMC)) (UniProt K9N7C7); conditions: at 10 µM
[2] = molecular target: Replicase polyprotein 1ab (Middle East respiratory syndrome-related coronavirus (isolate UnitedKingdom/H123990006/2012) (Betacoronavirus England 1) (Humancoronavirus EMC), UniProt K9N7C7); assay: biochemical; format: functional
Replicase polyprotein 1ab (Middle East respiratory syndrome-related coronavirus (isolate UnitedKingdom/H123990006/2012) (Betacoronavirus England 1) (Humancoronavirus EMC), UniProt K9N7C7), sequence (K9N7C7 3248-3553 limits assumed): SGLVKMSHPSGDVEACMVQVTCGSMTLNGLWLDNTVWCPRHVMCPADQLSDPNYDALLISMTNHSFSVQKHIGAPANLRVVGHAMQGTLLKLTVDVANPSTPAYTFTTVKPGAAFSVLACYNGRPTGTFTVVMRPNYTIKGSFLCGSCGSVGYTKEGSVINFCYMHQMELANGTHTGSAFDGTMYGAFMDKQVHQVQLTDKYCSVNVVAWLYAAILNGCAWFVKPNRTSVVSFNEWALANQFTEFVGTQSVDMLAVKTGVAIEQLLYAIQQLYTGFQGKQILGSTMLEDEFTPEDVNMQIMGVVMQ

[3] = molecular target: Replicase polyprotein 1ab (Severe acute respiratory syndrome coronavirus 2, UniProt P0DTD1); assay: biochemical; format: functional
[4] = molecular target: Chymotrypsin (Homo sapiens) (UniProt Q99895+P17538+P40313+Q6GPI1); assay: Chymotrypsin inhibition percentage at 10 µM by FRET kind of response from peptide substrate; format: functional

| Compound | inhibition [1] | IC50 [2] [nM] | IC50 [3] [nM] | inhibition [4] | IC50 ([2]; tested as the Zn salt or complex) [nM] |
| --- | --- | --- | --- | --- | --- |
| C[C@@](Cc1ccc(O)c(O)c1)(NN)C(=O)O [CARBIDOPA ANHYDROUS] | 0% | > 10000 | 3550 |  |  |
| CCOc1cc(C(Nc2cc(C)ccn2)c2ccc3cccnc3c2O)ccc1OC (centres undefined) |  |  | < 270 | 13.3% |  |
| Sc1nnc(Nc2ccccc2)s1 |  |  | 390 | 4.67% |  |
| CC(C)c1cc(CNc2nc(Nc3cc(C4CC4)[nH]n3)cc(N3CCN(C)CC3)n2)on1 [XL-228] | 9% | > 10000 | 1490 |  |  |
| CCOC(=O)c1c(N)sc(-c2ccccc2)c1C |  |  | 3190 | 5.82% |  |
| Cc1ccc(S(=O)(=O)N[C@@H](Cc2ccccc2)C(=O)CCl)cc1 [TPCK] |  |  | 1370 | 39.6% |  |
| Cc1ccc(S(=O)(=O)/C=C/C#N)cc1 | 17% | > 10000 | 820 |  |  |
| O=C1C=Cc2cc(Br)ccc2C1=O | 9% and 0% | > 10000 | 160 | 8.47% |  |
| S=C(S)N1CCCC1 [PYRROLIDINE DITHIOCARBAMIC ACID, AMMONIUM SALT] | 42% | > 10000 | 210 |  |  |
| C/N=c1/nc(-c2ccccc2)n(-c2ccccc2)s1 | 44% | > 10000 | 980 |  |  |
| PHENYLMERCURIC ACETATE |  | > 10000 | 10 |  |  |
| Oc1cc(CNC(=S)/C=C/c2cc(O)c(O)c(Br)c2)cc(O)c1O | 20% | > 10000 | 480 |  |  |
| ACRIFLAVINE HYDROCHLORIDE |  | 10000 | 1930 |  |  |
| C/C=C1\C(OC2OC(CO)C(O)C(O)C2O)OC=C(C(=O)OC)C1CC(=O)OCCc1ccc(O)c(O)c1 (centres undefined) | 0% | > 10000 | 3380 |  |  |
| O=C(O)[C@@H](S)[C@@H](S)C(=O)O | 0% | > 10000 | 1720 |  |  |
| Nc1ccc2cc3ccc(N)cc3nc2c1 [PROFLAVINE] |  | > 10000 | 360 | 16.3% |  |

| Compound | inhibition [1] | IC50 [2] [nM] | IC50 [3] [nM] | inhibition [4] | IC50 ([2]; tested as the Zn salt or complex) [nM] |
| --- | --- | --- | --- | --- | --- |
| Cc1ccc(-n2sc(=O)n(Cc3ccc(F)cc3)c2=O)cc1 | 35% | > 10000 | 230 | 24.5% |  |
| CC(C)(C)OC(=O)NCCc1nnc(S(=O)(=O)Cc2ccc(Cl)cc2Cl)o1 |  |  | 4220 | 103% |  |
| Cc1c(OCC(F)(F)F)ccnc1C[S+]([O-])c1nc2ccccc2[nH]1 (centres undefined) [LANSOPRAZOLE] | 47% | > 10000 | 390 | 6.43% and 5.66% |  |
| [O-][n+]1ccccc1S [PYRITHIONE ZINC] |  |  | 2460 |  | > 10000 |
| O=c1c(O)cccc2cc(O)c(O)c(O)c12 [PURPUROGALLIN] |  |  | 4580 | 9.33% |  |
| Sc1nnnn1-c1ccccc1 |  |  | 2360 | 4.48% |  |
| Nc1nc(S)c2ncn(C3OC(CO)C(O)C3O)c2n1 (centres undefined) |  |  | 1080 | 7.56% |  |
| CN1CCN(C(=O)c2ccc(-c3ccc4c(C=O)c(O)ccc4c3)s2)CC1 |  |  | 1330 | 9.67% |  |
| COc1cccc2c1C(=O)c1c(O)c3c(c(O)c1C2=O)C[C@@](O)(/C(CO)=N/NC(=O)CCCCCN1C(=O)C=CC1=O)C[C@@H]3O[C@H]1C[C@H](N)[C@H](O)[C@H](C)O1 [ALDOXORUBICIN] | 1% | > 10000 | 580 |  |  |
| O=C1C(Cl)=C(Cl)C(=O)C(Cl)=C1Cl [CHLORANIL] |  |  | < 20 | 10.1% |  |
| CN1CCN(C2=C(Cl)C(=O)N(c3ccc(Cl)c(Cl)c3)C2=O)CC1 |  |  | < 1230 | 9.67% |  |
| CC(C)Nc1cccnc1N1CCN(C(=O)c2cc3cc(NS(C)(=O)=O)ccc3[nH]2)CC1 [DELAVIRDINE MESYLATE] | 34% | > 10000 | 3990 | 9.13% |  |
| MERBROMIN |  | > 10000 | 240 |  |  |
| CC(CN1CC(=O)NC(=O)C1)N1CC(=O)NC(=O)C1 (centres undefined) [RAZOXANE] | 7% | > 10000 | 3190 | -0.92% |  |
| Cc1c(-c2cnccn2)ssc1=S [OLTIPRAZ] | 10% and 0% | > 10000 | 620 | 9.89% |  |
